These are literature values, as cited in US7973084B2, “Molecular transporters based on alditol or inositol and processes for the preparation thereof” (Postech Academy-Industrial Foundation, priority 2005, dated 2011).

The test system of the series is Jurkat cells.

Turning to D-arginine nonamer, the “uptake by Jurkat cells” value (determined using FACS) is recorded as “much more effective”.
Consider L-arginine nonamer, for which the “effectiveness in the transportation across a biological membrane relative to Tat protein (49-57 a.a.)” value (compared with Tat protein (49-57 a.a.)) is reported as 20 times.
